Measurements reported in PMC5218480 (PLoS ONE, 2017).

System: MV-4-11 cells
Test: Gene expression microarray analysis (Affymetrix PrimeView) and GSEA
Assay type: cell-based, human
Set-up: RFU PODN (11730768_x_at) / Fold change /veh PODN (11730768_x_at) / RFU LINC00158 (11744669_a_at) / Fold change /veh LINC00158 (11744669_a_at) / RFU DUSP10 (11751237_a_at) / Fold change /veh DUSP10 (11751237_a_at) / RFU ID3 (11757404_x_at) / Fold change /veh ID3 (11757404_x_at) / RFU PLEKHG5 (11737974_s_at) / Fold change /veh PLEKHG5 (11737974_s_at) / RFU LRRC4B (11730491_at) / Fold change /veh LRRC4B (11730491_at) / RFU GIMAP4 (11747438_a_at) / Fold change /veh GIMAP4 (11747438_a_at) / RFU KRT8 (11758183_x_at) / Fold change /veh KRT8 (11758183_x_at) / RFU CNN1 (11734310_a_at) / Fold change /veh CNN1 (11734310_a_at) / RFU VPS37D (11726825_at) / Fold change /veh VPS37D (11726825_at) / RFU C10orf10 (11716522_x_at) / Fold change /veh C10orf10 (11716522_x_at) / RFU KIR2DL2 /// KIR2DL4 /// KIR2DL5A /// KIR2DL5B /// KIR2DS1 /// KIR2DS2 /// KIR2DS3 /// KIR2DS4 /// KIR3DL3 /// KIR3DL3 /// KIR3DS1 (11738374_at) / Fold change /veh KIR2DL2 /// KIR2DL4 /// KIR2DL5A /// KIR2DL5B /// KIR2DS1 /// KIR2DS2 /// KIR2DS3 /// KIR2DS4 /// KIR3DL3 /// KIR3DL3 /// KIR3DS1 (11738374_at) / RFU C1QL1 (11718748_at) / Fold change /veh C1QL1 (11718748_at) / RFU TMPRSS4 (11747572_a_at) / Fold change /veh TMPRSS4 (11747572_a_at) / RFU HAMP (11756126_x_at) / Fold change /veh HAMP (11756126_x_at) / RFU RNFT2 (11725882_a_at) / Fold change /veh RNFT2 (11725882_a_at) / RFU NR4A2 (11747474_a_at) / Fold change /veh NR4A2 (11747474_a_at) / RFU ABCC12 (11746883_a_at) / Fold change /veh ABCC12 (11746883_a_at) / RFU TMEM136 (11760407_x_at) / Fold change /veh TMEM136 (11760407_x_at) / RFU CLDN22 /// WWC2 (11732394_at) / Fold change /veh CLDN22 /// WWC2 (11732394_at) / RFU HLA-DPB1 (11760878_x_at) / Fold change /veh HLA-DPB1 (11760878_x_at) / RFU SPINT1 (11716480_a_at) / Fold change /veh SPINT1 (11716480_a_at) / RFU GAP43 (11754022_s_at) / Fold change /veh GAP43 (11754022_s_at) / RFU A4GNT (11735810_at) / Fold change /veh A4GNT (11735810_at) / RFU PRB3 (11715151_x_at) / Fold change /veh PRB3 (11715151_x_at) / RFU TUBB4B (11761932_at) / Fold change /veh TUBB4B (11761932_at) / RFU CAPN14 (11732068_a_at) / Fold change /veh CAPN14 (11732068_a_at) / RFU TMCC2 (11721928_a_at) / Fold change /veh TMCC2 (11721928_a_at) / RFU IRGQ (11745062_a_at) / Fold change /veh IRGQ (11745062_a_at) / RFU FAM174B (11720279_a_at) / Fold change /veh FAM174B (11720279_a_at) / RFU TMPRSS4 (11748680_a_at) / Fold change /veh TMPRSS4 (11748680_a_at) / RFU FAM212B (11763350_a_at) / Fold change /veh FAM212B (11763350_a_at) / RFU PLEKHG5 (11743358_a_at) / Fold change /veh PLEKHG5 (11743358_a_at) / RFU ZSCAN30 (11745921_a_at) / Fold change /veh ZSCAN30 (11745921_a_at) / RFU CMKLR1 (11741424_a_at) / Fold change /veh CMKLR1 (11741424_a_at) / RFU LOC101060620 /// MAPK8IP1 (11723275_at) / Fold change /veh LOC101060620 /// MAPK8IP1 (11723275_at) / RFU SPTSSB (11747773_x_at) / Fold change /veh SPTSSB (11747773_x_at) / RFU PRSS12 (11739890_at) / Fold change /veh PRSS12 (11739890_at) / RFU BIN1 (11741810_x_at) / Fold change /veh BIN1 (11741810_x_at) / RFU WNT11 (11732464_a_at) / Fold change /veh WNT11 (11732464_a_at) / RFU C10orf10 (11716521_a_at) / Fold change /veh C10orf10 (11716521_a_at) / RFU C5orf56 (11738089_at) / Fold change /veh C5orf56 (11738089_at) / RFU CYB561 (11721691_x_at) / Fold change /veh CYB561 (11721691_x_at) / RFU ANKRD19P (11752326_a_at) / Fold change /veh ANKRD19P (11752326_a_at) / RFU OR2T12 /// OR2T33 /// OR2T8 (11738714_s_at) / Fold change /veh OR2T12 /// OR2T33 /// OR2T8 (11738714_s_at) / RFU VCAN (11748164_a_at) / Fold change /veh VCAN (11748164_a_at) / RFU JSRP1 (11732532_at) / Fold change /veh JSRP1 (11732532_at) / RFU KRTAP10-11 (11738290_x_at) / Fold change /veh KRTAP10-11 (11738290_x_at) / RFU MYO3A (11730013_a_at) / Fold change /veh MYO3A (11730013_a_at) / RFU EBF3 (11725865_a_at) / Fold change /veh EBF3 (11725865_a_at) / RFU CAMK2N1 (11719241_x_at) / Fold change /veh CAMK2N1 (11719241_x_at) / RFU C5orf56 (11738088_a_at) / Fold change /veh C5orf56 (11738088_a_at) / RFU OLFML3 (11715873_a_at) / Fold change /veh OLFML3 (11715873_a_at) / RFU LOC100653217 /// NTM (11731650_a_at) / Fold change /veh LOC100653217 /// NTM (11731650_a_at) / RFU MAPK11 (11762145_a_at) / Fold change /veh MAPK11 (11762145_a_at) / RFU FIZ1 (11724087_x_at) / Fold change /veh FIZ1 (11724087_x_at) / RFU OASL (11726364_x_at) / Fold change /veh OASL (11726364_x_at) / RFU SOX15 (11748057_x_at) / Fold change /veh SOX15 (11748057_x_at) / RFU CD79A (11719716_a_at) / Fold change /veh CD79A (11719716_a_at) / RFU HIST1H1D (11736915_at) / Fold change /veh HIST1H1D (11736915_at) / RFU CASKIN2 (11723855_a_at) / Fold change /veh CASKIN2 (11723855_a_at) / RFU LOC730098 (11760151_x_at) / Fold change /veh LOC730098 (11760151_x_at) / RFU OR4N2 (11742367_at) / Fold change /veh OR4N2 (11742367_at) / RFU PRRT2 (11749266_a_at) / Fold change /veh PRRT2 (11749266_a_at) / RFU SNX32 (11753110_a_at) / Fold change /veh SNX32 (11753110_a_at) / RFU CDHR5 (11726645_a_at) / Fold change /veh CDHR5 (11726645_a_at) / RFU RCAN1 (11760418_a_at) / Fold change /veh RCAN1 (11760418_a_at) / RFU FAM167A (11723789_a_at) / Fold change /veh FAM167A (11723789_a_at) / RFU FAM26E (11764081_at) / Fold change /veh FAM26E (11764081_at) / RFU ISYNA1 (11749810_s_at) / Fold change /veh ISYNA1 (11749810_s_at) / RFU ACY1 (11761880_at) / Fold change /veh ACY1 (11761880_at) / RFU 11764098_at / Fold change /veh 11764098_at / RFU SAMD14 (11745864_x_at) / Fold change /veh SAMD14 (11745864_x_at) / RFU NPB (11741838_a_at) / Fold change /veh NPB (11741838_a_at) / RFU TMPRSS6 (11731388_a_at) / Fold change /veh TMPRSS6 (11731388_a_at) / RFU KRTAP10-2 (11738614_at) / Fold change /veh KRTAP10-2 (11738614_at) / RFU ARHGAP8 /// PRR5-ARHGAP8 (11727945_x_at) / Fold change /veh ARHGAP8 /// PRR5-ARHGAP8 (11727945_x_at) / RFU KRTAP5-7 /// NADSYN1 (11734609_at) / Fold change /veh KRTAP5-7 /// NADSYN1 (11734609_at) / RFU RASL12 (11751679_a_at) / Fold change /veh RASL12 (11751679_a_at) / RFU CDKN2B (11736163_a_at) / Fold change /veh CDKN2B (11736163_a_at) / RFU PRF1 (11729649_at) / Fold change /veh PRF1 (11729649_at) / RFU, ZNF638 /// ZNF638-IT1 / Fold change vs veh, ZNF638 /// ZNF638-IT1 / RFU, PANK3 / Fold change vs veh, PANK3 / RFU, SH3YL1 / Fold change vs veh, SH3YL1 / RFU, ZEB2 / Fold change vs veh, ZEB2 / RFU, NRIP1 / Fold change vs veh, NRIP1 / RFU, PTTG1IP / Fold change vs veh, PTTG1IP / RFU, CAPN2 / Fold change vs veh, CAPN2 / RFU, MED14 / Fold change vs veh, MED14 / RFU, SNORA58 / Fold change vs veh, SNORA58 / RFU, C1orf63 / Fold change vs veh, C1orf63 / RFU, LRRFIP1 / Fold change vs veh, LRRFIP1 / RFU, NDUFAF7 / Fold change vs veh, NDUFAF7 / RFU, SLC12A2 / Fold change vs veh, SLC12A2 / RFU, IBTK / Fold change vs veh, IBTK / RFU, ESF1 / Fold change vs veh, ESF1 / Fold change vs veh, TMEM50B / RFU, TAOK1 / Fold change vs veh, TAOK1 / RFU, ACBD3 / Fold change vs veh, ACBD3 / RFU, TMA16 / Fold change vs veh, TMA16 / RFU, RWDD3 / Fold change vs veh, RWDD3 / RFU, BCAT1 / Fold change vs veh, BCAT1 / RFU, EDEM3 / Fold change vs veh, EDEM3 / RFU, TMEM33 / Fold change vs veh, TMEM33 / RFU, WDR75 / Fold change vs veh, WDR75 / RFU, AHCTF1 / Fold change vs veh, AHCTF1 / RFU, TFRC / Fold change vs veh, TFRC / RFU, ZDHHC17 / Fold change vs veh, ZDHHC17 / RFU, NOM1 / Fold change vs veh, NOM1 / RFU, ARL8B / Fold change vs veh, ARL8B / RFU, ZBTB11 / Fold change vs veh, ZBTB11 / RFU, TAMM41 / Fold change vs veh, TAMM41 / RFU, KIAA1704 /// LOC100996395 / Fold change vs veh, KIAA1704 /// LOC100996395 / RFU, ING1 / Fold change vs veh, ING1 / RFU, TRMT61B / Fold change vs veh, TRMT61B / RFU, FUBP3 / Fold change vs veh, FUBP3 / RFU, TP53 / Fold change vs veh, TP53 / RFU, TNKS2 / Fold change vs veh, TNKS2 / RFU, ZFP14 / Fold change vs veh, ZFP14 / RFU, ACTR2 / Fold change vs veh, ACTR2 / RFU, PPP3R1 / Fold change vs veh, PPP3R1 / RFU, PIK3R1 / Fold change vs veh, PIK3R1 / RFU, HNRNPA1 / Fold change vs veh, HNRNPA1 / RFU, RNF170 / Fold change vs veh, RNF170 / RFU, ZNF28 / Fold change vs veh, ZNF28 / RFU, RNGTT / Fold change vs veh, RNGTT / RFU, OGT / Fold change vs veh, OGT / RFU, BRD1 / Fold change vs veh, BRD1 / RFU, MARS / Fold change vs veh, MARS / RFU, ZNF655 / Fold change vs veh, ZNF655 / RFU, FAHD1 / Fold change vs veh, FAHD1 / RFU, BDP1 / Fold change vs veh, BDP1 / RFU, LRRCC1 / Fold change vs veh, LRRCC1 / RFU, ARID1A / Fold change vs veh, ARID1A / RFU, ZNF146 / Fold change vs veh, ZNF146 / RFU, ZNF330 / Fold change vs veh, ZNF330 / RFU, GPN3 / Fold change vs veh, GPN3 / RFU, C9orf123 / Fold change vs veh, C9orf123 / RFU, N4BP2L2 / Fold change vs veh, N4BP2L2 / RFU, ARFIP1 / Fold change vs veh, ARFIP1 / RFU, FAM179B / Fold change vs veh, FAM179B / RFU, BCL10 / Fold change vs veh, BCL10 / RFU, UHRF1BP1L / Fold change vs veh, UHRF1BP1L / RFU, BET1 / Fold change vs veh, BET1 / RFU, CNOT2 / Fold change vs veh, CNOT2 / RFU, ZNF268 / Fold change vs veh, ZNF268 / Fold change vs veh, ZNF507 / RFU, DGCR2 / Fold change vs veh, DGCR2 / RFU, WDSUB1 / Fold change vs veh, WDSUB1 / Fold change vs veh, HSP90B1 /// MIR3652 / RFU, ADSS / Fold change vs veh, ADSS / RFU, GK / Fold change vs veh, GK / RFU, ZNF148 / Fold change vs veh, ZNF148 / RFU, TAF9 / Fold change vs veh, TAF9 / RFU, SLC1A5 / Fold change vs veh, SLC1A5 / RFU, SLMO2 / Fold change vs veh, SLMO2 / RFU, ABCC4 / Fold change vs veh, ABCC4 / RFU, LOC101060439 /// RAP1B / Fold change vs veh, LOC101060439 /// RAP1B / RFU, RFX7 / Fold change vs veh, RFX7 / RFU, GTPBP10 / Fold change vs veh, GTPBP10 / RFU, CNEP1R1 / Fold change vs veh, CNEP1R1 / RFU, BIVM-ERCC5 /// ERCC5 / Fold change vs veh, BIVM-ERCC5 /// ERCC5 / RFU, ILF3 / Fold change vs veh, ILF3 / RFU 11762660_at / Fold change /veh 11762660_at / RFU VCAN (11757783_s_at) / Fold change /veh VCAN (11757783_s_at) / RFU DDX43 (11728927_at) / Fold change /veh DDX43 (11728927_at) / RFU KRT8 (11758188_x_at) / Fold change /veh KRT8 (11758188_x_at) / RFU NKD1 (11759106_at) / Fold change /veh NKD1 (11759106_at) / RFU SRD5A1 (11742802_a_at) / Fold change /veh SRD5A1 (11742802_a_at) / RFU TPSAB1 /// TPSB2 (11721975_s_at) / Fold change /veh TPSAB1 /// TPSB2 (11721975_s_at) / RFU GSTM3 (11746129_a_at) / Fold change /veh GSTM3 (11746129_a_at) / RFU IL23R (11737362_x_at) / Fold change /veh IL23R (11737362_x_at) / RFU TMEM51 (11727254_a_at) / Fold change /veh TMEM51 (11727254_a_at) / RFU PIWIL2 (11732686_x_at) / Fold change /veh PIWIL2 (11732686_x_at) / RFU ORM1 (11744905_x_at) / Fold change /veh ORM1 (11744905_x_at) / RFU CCDC152 (11743942_at) / Fold change /veh CCDC152 (11743942_at) / RFU ECM1 (11717891_a_at) / Fold change /veh ECM1 (11717891_a_at) / RFU IL23R (11748794_a_at) / Fold change /veh IL23R (11748794_a_at) / RFU TNFAIP8L3 (11732012_x_at) / Fold change /veh TNFAIP8L3 (11732012_x_at) / RFU MBOAT4 (11741988_at) / Fold change /veh MBOAT4 (11741988_at) / RFU 11764193_at / Fold change /veh 11764193_at / RFU TMEM53 (11763286_at) / Fold change /veh TMEM53 (11763286_at) / RFU MAGEB2 (11727129_at) / Fold change /veh MAGEB2 (11727129_at) / RFU TMEM200A (11744735_a_at) / Fold change /veh TMEM200A (11744735_a_at) / RFU CCDC152 (11751479_a_at) / Fold change /veh CCDC152 (11751479_a_at) / RFU FAM211A (11726209_a_at) / Fold change /veh FAM211A (11726209_a_at) / RFU RGS16 (11746705_a_at) / Fold change /veh RGS16 (11746705_a_at) / RFU VCAN (11755009_s_at) / Fold change /veh VCAN (11755009_s_at) / RFU RHOB (11743442_s_at) / Fold change /veh RHOB (11743442_s_at) / RFU RGS16 (11720943_a_at) / Fold change /veh RGS16 (11720943_a_at) / RFU RGS16 (11720944_at) / Fold change /veh RGS16 (11720944_at) / RFU, VPS4B / Fold change vs veh, VPS4B / RFU, CREB1 / Fold change vs veh, CREB1 / RFU, DNAJC13 / Fold change vs veh, DNAJC13 / RFU, GNAQ / Fold change vs veh, GNAQ / RFU, CDK5R1 / Fold change vs veh, CDK5R1 / RFU, ZRANB3 / Fold change vs veh, ZRANB3 / RFU, CUL4A / Fold change vs veh, CUL4A / RFU, CCNY / Fold change vs veh, CCNY / RFU, UFL1 / Fold change vs veh, UFL1 / RFU, COG3 / Fold change vs veh, COG3 / RFU, DIAPH2 / Fold change vs veh, DIAPH2 / RFU, SKA2 / Fold change vs veh, SKA2 / RFU, AFF3 / Fold change vs veh, AFF3 / RFU, LMF1 / Fold change vs veh, LMF1 / RFU, IPO11 / Fold change vs veh, IPO11 / RFU, DFFB / Fold change vs veh, DFFB / RFU, FOXP1 / Fold change vs veh, FOXP1 / RFU, CARD8 / Fold change vs veh, CARD8 / RFU, STRN3 / Fold change vs veh, STRN3 / RFU, ADK / Fold change vs veh, ADK / RFU, RASSF2 / Fold change vs veh, RASSF2 / RFU, WIPF1 / Fold change vs veh, WIPF1 / RFU, LARP1B / Fold change vs veh, LARP1B / RFU, RASA1 / Fold change vs veh, RASA1 / RFU, RB1 / Fold change vs veh, RB1 / RFU, PPFIA1 / Fold change vs veh, PPFIA1 / RFU, MAT2A / Fold change vs veh, MAT2A / RFU, CCT5 / Fold change vs veh, CCT5 / RFU, WDR92 / Fold change vs veh, WDR92 / RFU, CUX1 / Fold change vs veh, CUX1 / RFU, TTC7A / Fold change vs veh, TTC7A / RFU, TMEM135 / Fold change vs veh, TMEM135 / RFU, DEPTOR / Fold change vs veh, DEPTOR / RFU, CPM / Fold change vs veh, CPM / RFU, DNAJB6 / Fold change vs veh, DNAJB6 / RFU, CACNA2D3 / Fold change vs veh, CACNA2D3 / RFU, DTX4 / Fold change vs veh, DTX4 / RFU, TFCP2 / Fold change vs veh, TFCP2 / RFU, GMCL1 /// GMCL1P1 / Fold change vs veh, GMCL1 /// GMCL1P1 / RFU, AEBP2 / Fold change vs veh, AEBP2 / RFU, SNHG1 /// SNORD22 /// SNORD25 /// SNORD26 /// SNORD27 /// SNORD28 /// SNORD29 /// SNORD31 / Fold change vs veh, SNHG1 /// SNORD22 /// SNORD25 /// SNORD26 /// SNORD27 /// SNORD28 /// SNORD29 /// SNORD31 / Fold change (Aza/veh), C12orf56 (ProbeSet 11735607_a_at) / Fold change (ACY-1035/veh), C12orf56 (ProbeSet 11735607_a_at) / Fold change (Aza/veh), FGFR1OP (ProbeSet 11751329_s_at) / Fold change (ACY-1035/veh), FGFR1OP (ProbeSet 11751329_s_at) / Fold change (Aza/veh), VPS36 (ProbeSet 11739960_a_at) / Fold change (ACY-1035/veh), VPS36 (ProbeSet 11739960_a_at) / RFU SYPL1 (11715823_x_at) / Fold change /veh SYPL1 (11715823_x_at) / RFU IGFBP7 (11715501_s_at) / Fold change /veh IGFBP7 (11715501_s_at) / RFU REEP3 (11722064_at) / Fold change /veh REEP3 (11722064_at) / RFU IGLL1 (11728026_x_at) / Fold change /veh IGLL1 (11728026_x_at): dose or concentration left out as unconfirmed
Conditions: ProbeSet 11732306_x_at; LIST D

Which “Fold change vs veh, CREB1” value does the source give for `Nc1ncn([C@@H]2O[C@H](CO)[C@@H](O)[C@H]2O)c(=O)n1` [azacitidine] here?
The value was 0.82.
